Measured values as given in patent US11352350B2, “IRAK degraders and uses thereof” (Kymera Therapeutics, Inc., priority 2018, dated 2022).
pIC50: −log10 of the molar value.

Legend:
IRAK4 [1] = target: T1, IRAK4 (Homo sapiens (Human), UniProt Q9NWZ3); assay: IRAK4 MSD degradation in OCI-LY10; format: cell-based
How it was run: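 OCI-LY10 cells treated with 8-point 1:3 dilutions (top 1 to 10 μM final) for 4 to 24 h at 37° C. Lysate IRAK4 measured by MSD sandwich immunoassay (2H9 capture, Y279 detection, SULFO-TAG anti-rabbit). DC50 from three-parameter logistic fit.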

OCI-LY10 = assay: CTG Cell Viability Assay - OCI-LY10; format: cell-based, human; details: Homo sapiens, OCI-Ly10, 96 h, OCI-LY10, 4 days; read-out: CTG Cell Viability Assay - OCI-LY10: Average external-IC50
How it was run: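 OCI-LY10 cells exposed to 9-dose, 1:3 dilutions from 10 μM top (0.2% DMSO) for 4 days at 37° C, 5% CO2. Viability by CellTiter-Glo luminescence; IC50 from three-parameter logistic fit.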

IRAK4 [2] = target: T1, IRAK4; assay: IRAK4 degradation in human whole blood monocyte - flow cytometry; format: cell-based; details: read-out: IRAK4 degradation in whole blood monocyte-Flow cytometry: Average external Abs IC50
Protocol: (§1) Human whole blood IRAK4 degradation flow assay. Whole blood was collected in heparinized tubes and plated on the same day as draw (day 0). Whole blood was aliquoted into deep well plates. Compound plates were prepared and a 10 point, 5-fold dilution was performed with a final DMSO concentration of 0.1%. Compound was added to whole blood deep well plate, sealed and incubated at 37° C., 5% CO2 for 20 hours (for 4 hour treatment, compounds were prepared and added the following day). Following the treatment incubation period (day 1), BD lyse fix (BD #558049) was added to the whole blood plate, placed on plate shaker for 30 seconds and incubated for 10 mins at room temperature. Whole blood was then spun down and washed two times with PBS/0.5% BSA, aspirated to pellet and placed into −80° C. freezer until further processing for flow. On the flow run day, whole blood plates were thawed and samples were transferred to PCR plates. The pre-perm staining cocktail (CD3 Ax488/CD8 BUV805/CD14 BUV395/CD16/56 BV711/CD19 BV785) was added to samples and incubated for 30 minutes at room temperature. Samples were washed two times and permeabilized with Methanol for 10 minutes at 4° C. Samples were washed two times and the post-perm staining cocktail (CD4 PE/IRAK4 Ax647 BD #560315) was added and incubated for 30 minutes at room temperature. Samples were washed two times with PBS/BSA and run on a BD LSRFortessa. Mononuclear cells are gated by SSCH/FSCH and single cells. Monocytes are then gated through CD14 positive gate and lymphocytes are gated through CD14 negative gate. To determine absolute DC50 and max degradation values, MFI values were normalized to DMSO max and 20 hour 10 μM min control. Twenty hour dose curves were calculated using a 4 parameter logistic regression curve fit, no constraints (Top doses were removed if hook effects were observed and the bottom was constrained to 0).

IRAK4 [3] = target: T1, IRAK4; assay: IRAK4 degradation in human whole blood lymphocyte - flow cytometry; format: cell-based; details: read-out: IRAK4 degradation in whole blood lymphocyte-Flow cytometry: Average external Abs IC50
Protocol: as §1

TNFα = assay: Human whole blood LPS TNFα assay; format: cell-based; details: 20 h pretreatment, LPS 5 h, read-out: IRAK4 human whole blood LPS TNFa inhibition: Average external-IC50
Protocol: Human Whole blood LPS TNFα assay. Whole blood was collected fresh and plated same day into 96 well plates at 180 μL per well. Compound plates were prepared in DMSO as 8-point dose curves in duplicate, starting dose 2 μM, 5-fold. Compounds are added 20 μL into blood for final 200 μL per well. Compound and cells were incubated at 37° C., 5% CO2 for 20 hours. After twenty hours of pretreatment with the compounds, LPS (01 1 1:B4) (Sigma #L2637) was added at 100 ng/ml final concentration and blood incubated an additional five hours at 37° C., 5% CO2. Following assay completion, whole blood plates were spun down at 2000 rpm for 15 minutes at 4° C. 50 μL of plasma was carefully removed and placed into a new 96 well Costar (#3879) plate and stored at −80° C. until further analysis. Meso scale Discovery (MSD) human V-plex assays were used to measure cytokine levels. On day of cytokine analysis, plasma samples were thawed, diluted with V-plex diluent #2, and directly to MSD plates. Assay was further completed per standard manufacturer's protocol. Cytokine data was normalized to LPS stimulated and unstimulated controls. Prism Graphpad was used to generate IC50 using 4 parameter logistic regression curve, free-fit.

IRAK4 [4] = target: T1, IRAK4; assay: hPBMC IRAK4 degradation flow assay; format: cell-based; details: hPBMC monocyte
How it was run: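 Thawed human PBMCs treated with 10-point, 5-fold compound dilutions (0.1% DMSO) at 37° C. for 20 hours or 4 hours. IRAK4 measured by flow MFI in CD14+ monocytes and CD14− lymphocytes, normalized to DMSO and 10 μM 20-hour control; DC50 and max degradation from 4-parameter logistic fit.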

IL-6 = IL-6 secretion in hPBMC using R848 stimulation; format: cell-based, human; details: Homo sapiens, 20 h, hPBMC, R848 as stim, t = 20 h
[5] = OCI-LY10, 4 hrs, MSD, read-out: IRAK4 MSD degradation in OCI-LY10 at 4 hrs: Average external-Abs DC50
[6] = OCI-LY10, 4 hrs, read-out: IRAK4 MSD degradation in OCI-LY10 at 4 hrs: DC50
[7] = 20 hrs, read-out: IRAK4 degradation in hPBMC monocyte: DC50
[8] = 20 hr, flow assay, read-out: IRAK4 degradation in hPBMC monocyte at 20 hr: Average external Abs DC50

T1 sequence (Q9NWZ3 whole entry): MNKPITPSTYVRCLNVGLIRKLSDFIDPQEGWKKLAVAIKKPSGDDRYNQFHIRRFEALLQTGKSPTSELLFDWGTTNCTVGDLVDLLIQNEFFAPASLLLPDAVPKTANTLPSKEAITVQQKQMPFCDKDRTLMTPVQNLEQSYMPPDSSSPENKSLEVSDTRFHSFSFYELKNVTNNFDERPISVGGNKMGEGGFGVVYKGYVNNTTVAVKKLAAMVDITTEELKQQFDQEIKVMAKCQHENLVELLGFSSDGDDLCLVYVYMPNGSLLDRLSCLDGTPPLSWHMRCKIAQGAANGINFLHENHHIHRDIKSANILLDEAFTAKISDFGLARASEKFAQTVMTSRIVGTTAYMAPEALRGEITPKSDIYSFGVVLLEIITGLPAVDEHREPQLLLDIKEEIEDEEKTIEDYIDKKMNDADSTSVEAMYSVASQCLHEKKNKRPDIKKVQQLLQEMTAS

Row | Compound | DC50 (IRAK4 [1]; [5]) [nM] | pIC50 (OCI-LY10) | pIC50 (IRAK4 [2]) | DC50 (IRAK4 [3]) [nM] | pIC50 (TNFα) | DC50 (IRAK4 [2]) [nM] | DC50 (IRAK4 [1]; [6]) [nM] | DC50 (IRAK4 [4]; [7]) [nM] | pIC50 (IL-6) | DC50 (IRAK4 [4]; [8]) [nM] | DC50 (IRAK4 [1]; OCI-LY10, 24 hrs, MSD, read-out: IRAK4 MSD degradation in OCI-LY10 at 24 hrs: Average external-Abs DC50) [nM]
1 | Cn1c(=O)n(C2CCC(=O)NC2=O)c2cccc(CCCOCCOCCNC[C@H]3CC[C@H](n4cc(NC(=O)c5coc(-c6ccnc(NCC(F)(F)F)c6)n5)c(C(N)=O)n4)CC3)c21 (stereo partly shown) [I-6] | < 10 | < 6.00 | > 7.30 | < 50 | < 6.00 | – | – | – | – | – | –
2 | CN(CC1CCN(CCC#Cc2ccc3c(c2)n(C)c(=O)n3C2CCC(=O)NC2=O)CC1)C(=O)[C@H]1CC[C@H](n2cc(NC(=O)c3coc(-c4ccnc(NCC5CC5)c4)n3)c(C(F)F)n2)CC1 (stereo partly shown) [I-27] | < 10 | > 7.30 | > 7.30 | < 50 | 6.30 to 7.00 | – | – | – | – | – | –
3 | CC(C)c1nn([C@H]2CC[C@H](CN(C)C[C@@H]3CN(CCCc4ccc5c(c4)n(C)c(=O)n5C4CCC(=O)NC4=O)CCO3)CC2)cc1NC(=O)c1coc(-c2ccnc(NCC3CC3)c2)n1 (stereo partly drawn) [I-94, 2-[2-(Cyclopropylmethylamino)-4-pyridyl]-N-[1-[4-[[[(2R)-4-[3-[1-(2,6-dioxo-3-piperidyl)-3-methyl-2-oxo-benzimidazol-5-yl]propyl]morpholin-2-yl]methyl-methyl-amino]methyl]cyclohexyl]-3-isopropyl-pyrazol-4-yl]oxazole-4-carboxamide] | – | – | – | 100 to 500 | – | 100 to 500 | – | – | – | – | –
4 | Cn1c(=O)n(C2CCC(=O)NC2=O)c2cccc(CCCOC[C@@H]3CN(C[C@H]4CC[C@H](n5cc(NC(=O)c6cnn7ccc(N8CCOCC8)nc67)c(C(F)F)n5)CC4)CCO3)c21 (stereo partly shown) [I-448] | – | < 6.00 | – | – | – | – | 10 to 100 | < 10 | 8.00 to 9.00 | – | –
5 | Cn1c(=O)n(C2CCC(=O)NC2=O)c2cccc(CCCCC3CCN(C(=O)c4ccc(-n5cc(NC(=O)c6cnn7ccc(N8C[C@H]9C[C@@H]8CO9)nc67)c(C(F)F)n5)cc4)CC3)c21 (stereo partly shown) [I-426] | 100 to 1000 | < 6.00 | – | – | – | – | – | – | 8.00 to 9.00 | < 10 | –
6 | Cn1c(=O)n(C2CCC(=O)NC2=O)c2cccc(CCCOCCOCCNC(=O)[C@H]3CC[C@H](n4cc(NC(=O)c5coc(-c6ccnc(NCC7CC7)c6)n5)c(C(F)F)n4)CC3)c21 (stereo partly shown) [I-1] | < 10 | 7.00 to 7.30 | – | 100 to 500 | – | 100 to 500 | – | – | – | – | 10 to 100
7 | O=C1CCC(n2c(=O)oc3cc(CCCOCCOCCNC[C@H]4CC[C@H](n5cc(NC(=O)c6coc(-c7ccnc(NCC8CC8)c7)n6)c(C(F)F)n5)CC4)ccc32)C(=O)N1 (stereo partly shown) [I-3] | < 10 | < 6.00 | > 7.30 | < 50 | – | – | – | – | – | – | –
8 | Cn1c(=O)n(C2CCC(=O)NC2=O)c2cccc(CCCN3CCC4(CC3)CN(C(=O)[C@H]3CC[C@H](n5cc(NC(=O)c6cnn7ccc(N8C[C@H]9C[C@@H]8CO9)nc67)c(C(F)F)n5)CC3)C4)c21 (stereo partly shown) [I-422] | 10 to 100 | < 6.00 | – | – | – | – | – | – | > 9.00 | < 10 | –
9 | Cn1c(=O)n(C2CCC(=O)NC2=O)c2cccc(CCCOC3CCN(C[C@H]4CC[C@H](n5cc(NC(=O)c6cnn7ccc(N8CCCOCC8)nc67)c(C(F)F)n5)CC4)CC3)c21 (stereo partly shown) [I-515] | – | < 6.00 | – | – | – | – | < 10 | < 10 | > 9.00 | – | –
10 | Cn1c(=O)n(C2CCC(=O)NC2=O)c2cccc(C#CCCCNC[C@H]3CC[C@H](n4cc(NC(=O)c5cnn6ccc(N7C[C@H]8C[C@@H]7CO8)nc56)c(C(F)F)n4)CC3)c21 (stereo partly drawn) [I-518, N-[3-(difluoromethyl)-1-[4-[[5-[1-(2,6-dioxo-3-piperidyl)-3-methyl-2-oxo-benzimidazol-4-yl]pent-4-ynylamino]methyl]cyclohexyl]pyrazol-4-yl]-5-[(1R)-2-oxa-5-azabicyclo[2.2.1]heptan-5-yl]pyrazolo[1,5-a]pyrimidine-3-carboxamide] | – | < 6.00 | – | – | – | – | 10 to 100 | < 10 | 8.00 to 9.00 | – | –
11 | O=C1CCC(n2c3ccccc3c3c(CCCOCCOCCNC[C@H]4CC[C@H](n5cc(NC(=O)c6coc(-c7ccnc(NCC8CC8)c7)n6)c(C(F)F)n5)CC4)ccnc32)C(=O)N1 (stereo partly shown) [I-92] | 10 to 100 | 6.30 to 7.00 | – | 500 to 1000 | – | 100 to 500 | – | – | – | – | –
12 | CN(CC(CCCOCCCc1cccc2c1n(C)c(=O)n2C1CCC(=O)NC1=O)C(=O)O)C[C@H]1CC[C@H](n2cc(NC(=O)c3cnn4ccc(N5C[C@H]6C[C@@H]5CO6)nc34)c(C(F)F)n2)CC1 (stereo partly drawn) [I-495, 2-[[[4-[3-(Difluoromethyl)-4-[[5-[(1R,4R)-2-oxa-5-azabicyclo [2.2.1]heptan-5-yl]pyrazolo [1,5-a]pyrimidine-3-carbonyl]amino]pyrazol-1-yl]cyclohexyl]methyl-methyl-amino]methyl]-5-[3-[1-(2,6-dioxo-3-piperidyl)-3-methyl-2-oxo-benzimidazol-4-yl]propoxy]pentanoic acid] | – | < 6.00 | – | – | – | – | 100 to 1000 | 10 to 100 | 7.00 to 8.00 | – | –
13 | Cc1ccc(-c2nn([C@H]3CC[C@H](CN4CCC5(CC4)CN(CCCc4cccc6c4n(C)c(=O)n6C4CCC(=O)NC4=O)C5)CC3)cc2NC(=O)c2cnn3cccnc23)nc1 (stereo partly shown) [I-509] | – | < 6.00 | – | – | – | – | 10 to 100 | 10 to 100 | 8.00 to 9.00 | – | –
14 | Cn1c(=O)n(C2CCC(=O)NC2=O)c2cccc(CC[C@H]3CN(C[C@H]4CC[C@H](n5cc(NC(=O)c6cnn7ccc(N8CCCOCC8)nc67)c(C(F)F)n5)CC4)CCO3)c21 (stereo partly shown) [I-516] | – | < 6.00 | – | – | – | – | 10 to 100 | < 10 | 8.00 to 9.00 | – | –
15 | Cn1c(=O)n(C2CCC(=O)NC2=O)c2cccc(C#CCN3CCC4(CC3)CN(C[C@H]3CC[C@H](n5cc(NC(=O)c6cnn7ccc(N8C[C@H]9C[C@@H]8CO9)nc67)c(C(F)F)n5)CC3)C4)c21 (stereo partly shown) [I-485] | – | < 6.00 | – | – | – | – | 10 to 100 | < 10 | 8.00 to 9.00 | – | –
